Data taken from ChEMBL document CHEMBL1201862, “PubChem BioAssay data set” (2004).
Activity calls are given as the source filed them.

Tests used:
[1] = biological target: ATP-dependent molecular chaperone HSP82 (Candida albicans (strain WO-1) (Yeast), UniProt C4YTQ8); experiment: loss of DOC-induced GRE-beta-galactosidase reporter signal, dose response, Hsp90 inhibitor project, S. cerevisiae, luminescence (AID 2400); assay type: functional, cell-based;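 note: beta-galactosidase luminescence from glucocorticoid response element reporter as proxy for Hsp90 function; inhibitor potency where signal loss means Hsp90 inhibition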
[2] = NIH-3T3 fibroblast cytotoxicity, dose response, cytotoxicity control, cell-based, fluorescence, Alamar Blue, secondary assay (AID 2327); assay type: functional;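 note: NIH-3T3 mouse fibroblasts cultured with fluconazole at 8 µg/mL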
[3] = biological target: 26S proteasome non-ATPase regulatory subunit 14 (Homo sapiens, UniProt O00487); experiment: inhibition of proteasome subunit RPN11 – biochemical, fluorescence polarization, uHTS hits, confirmation (AID 602368); assay type: functional
[4] = biological target: Photoreceptor-specific nuclear receptor (Homo sapiens, UniProt Q9Y5X4); assay type: functional, cell-based;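 note: CHO-S cells with Gal4-NCOR and VP16-NR2E3 two-hybrid luciferase reporter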
[5] = biological target: T1, Serine/threonine-protein phosphatase (Candida dubliniensis (strain CD36 / CBS 7987 / NCPF 3949 / NRRLY-17841) (Yeast), UniProt B9W6M3); experiment: calcineurin pathway inhibitors in yeast reporter, dose response, S. cerevisiae, CDRE-lacZ, luminescence, secondary (AID 2388); assay type: functional, cell-based;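 note: yeast reporter cells carrying a calcineurin-responsive lacZ construct stimulated with calcium chloride; luminescent beta-galactosidase reporter signal in whole cells rather than isolated phosphatase activity; potency for inhibition where a drop in reporter signal means calcineurin blockade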
T1 sequence (B9W6M3 whole entry): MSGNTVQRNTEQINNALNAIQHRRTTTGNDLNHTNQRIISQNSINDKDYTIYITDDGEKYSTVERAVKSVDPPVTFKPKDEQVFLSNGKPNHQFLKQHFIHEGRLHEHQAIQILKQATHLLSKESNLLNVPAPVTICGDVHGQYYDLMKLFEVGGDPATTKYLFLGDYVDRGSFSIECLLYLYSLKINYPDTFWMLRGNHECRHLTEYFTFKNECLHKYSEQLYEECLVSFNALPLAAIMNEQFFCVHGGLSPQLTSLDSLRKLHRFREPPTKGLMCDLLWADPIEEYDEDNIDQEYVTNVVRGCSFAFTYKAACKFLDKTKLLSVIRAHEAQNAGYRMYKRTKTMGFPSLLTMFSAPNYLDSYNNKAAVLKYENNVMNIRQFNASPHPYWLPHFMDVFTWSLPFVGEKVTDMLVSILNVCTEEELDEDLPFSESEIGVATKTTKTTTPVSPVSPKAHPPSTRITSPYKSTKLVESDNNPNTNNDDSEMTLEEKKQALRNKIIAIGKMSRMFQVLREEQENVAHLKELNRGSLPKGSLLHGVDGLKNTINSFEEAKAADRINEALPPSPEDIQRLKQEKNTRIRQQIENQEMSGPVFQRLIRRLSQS

[6] = C. albicans growth with fluconazole, confirmation, fluorescence, retest (AID 2467); assay type: functional, cell-based
[7] = biological target: 72 kDa type IV collagenase (Homo sapiens, UniProt P08253); experiment: Dose Response validation of uHTS RPN11 inhibitor hits using a MMP-2 Fluorescence assay.; assay type: functional
[8] = biological target: Prothrombin (Bos taurus, UniProt P00735); experiment: thrombin inhibition, dose response, biochemical, fluorescence polarization, uHTS hits (AID 602369); assay type: functional
[9] = biological target: Nonstructural protein 1 (Influenza A virus, UniProt Q194T2); assay type: functional, Influenza A virus (A/California/07/2009(H1N1))
[10] = tested on: HEK293; experiment: cells; conditions: Homo sapiens
[11] = tested on: HEK293; experiment: cells; conditions: Homo sapiens; remark: listed apart in the source
[12] = inhibitors of intracellular T. cruzi replication, confirmation, NIH3T3 host cells, beta-gal luminescence (AID 2044); assay type: functional, cell-based;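 note: intracellular parasites grown in NIH/3T3 mouse fibroblasts as host cells; luminescent beta-galactosidase reporter signal from transgenic T. cruzi replicating inside host cells; inhibitors lower the luminescence signal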
[13] = cytotoxicity toward NIH3T3 fibroblasts, dose response, counter-screen, cell-based, ATP luminescence, mouse fibroblasts (AID 2010); assay type: functional;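 note: cells exposed to compound for about 90 hours before reading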
[14] = biological target: Voltage-dependent T-type calcium channel subunit alpha-1H (Homo sapiens, UniProt O95180); assay type: functional;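 note: channel activity triggered by adding a high calcium stimulation buffer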
[15] = biological target: Protein Wnt-3a (Mus musculus, UniProt P27467); experiment: Wnt3a-driven reporter signaling inhibition, dose response, selectivity assay for Gli-SUFU antagonist project, Wnt-LIGHT cells, luminescence (AID 651570); assay type: functional; conditions: read-out: IC50_Mean;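 note: Wnt-LIGHT reporter cells stimulated with conditioned medium from Wnt3a-producing cells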
[16] = control 3'UTR Renilla luciferase suppression, dose response, counter-screen for Shn3 inhibitor project, cell-based, Clone20-Shn3RL, cherry-picked (AID 624133); assay type: functional
[17] = HepG2 cell cytotoxicity, dose response, cytotoxicity control for Shn3 inhibitor project, CellTiter-Glo, cherry-picked (AID 624134); assay type: functional, cell-based
[18] = tested on: Escherichia coli; experiment: microbe, parasite or virus in culture
[19] = biological target: T2, RNA-binding protein pos-1 (Caenorhabditis elegans, UniProt G5EF15); experiment: inhibitors of POS-1/mex-3 RNA binding, dose response, biochemical, fluorescence polarization (AID 1964);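 note: purified POS-1 fused to maltose binding protein made in E. coli; potency of compounds blocking POS-1 binding to fluorescent RNA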
T2 sequence (G5EF15 whole entry): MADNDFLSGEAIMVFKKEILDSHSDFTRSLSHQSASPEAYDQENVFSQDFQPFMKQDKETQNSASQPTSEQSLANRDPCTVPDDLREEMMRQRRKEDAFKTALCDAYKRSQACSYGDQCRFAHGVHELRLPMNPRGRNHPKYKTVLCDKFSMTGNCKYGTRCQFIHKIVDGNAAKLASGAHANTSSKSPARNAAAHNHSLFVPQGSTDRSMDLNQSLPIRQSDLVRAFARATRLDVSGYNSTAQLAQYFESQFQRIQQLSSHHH

[20] = biological target: T3, Zinc finger protein mex-5 (Caenorhabditis elegans, UniProt Q9XUB2); experiment: MEX-5/TCR-2 RNA interaction inhibitors, dose response, biochemical, C. elegans, fluorescence polarization (AID 1960)
T3 sequence (Q9XUB2 whole entry): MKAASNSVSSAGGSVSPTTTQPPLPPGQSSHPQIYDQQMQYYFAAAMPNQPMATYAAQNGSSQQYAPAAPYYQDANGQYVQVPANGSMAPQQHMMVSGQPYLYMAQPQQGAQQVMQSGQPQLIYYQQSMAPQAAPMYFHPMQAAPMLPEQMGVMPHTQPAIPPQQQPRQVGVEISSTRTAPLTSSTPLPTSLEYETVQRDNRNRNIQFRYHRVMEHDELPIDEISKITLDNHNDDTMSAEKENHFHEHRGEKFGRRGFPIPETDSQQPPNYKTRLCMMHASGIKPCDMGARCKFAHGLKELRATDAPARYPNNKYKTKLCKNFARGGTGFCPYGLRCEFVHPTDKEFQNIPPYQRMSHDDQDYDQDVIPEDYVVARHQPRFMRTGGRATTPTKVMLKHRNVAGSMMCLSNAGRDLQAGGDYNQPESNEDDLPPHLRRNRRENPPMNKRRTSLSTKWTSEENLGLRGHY

[21] = biological target: T4, fMet-Leu-Phe receptor (Homo sapiens, UniProt P21462); experiment: FPR ligands, dose response (AID 519); assay type: functional
T4 sequence (P21462 whole entry): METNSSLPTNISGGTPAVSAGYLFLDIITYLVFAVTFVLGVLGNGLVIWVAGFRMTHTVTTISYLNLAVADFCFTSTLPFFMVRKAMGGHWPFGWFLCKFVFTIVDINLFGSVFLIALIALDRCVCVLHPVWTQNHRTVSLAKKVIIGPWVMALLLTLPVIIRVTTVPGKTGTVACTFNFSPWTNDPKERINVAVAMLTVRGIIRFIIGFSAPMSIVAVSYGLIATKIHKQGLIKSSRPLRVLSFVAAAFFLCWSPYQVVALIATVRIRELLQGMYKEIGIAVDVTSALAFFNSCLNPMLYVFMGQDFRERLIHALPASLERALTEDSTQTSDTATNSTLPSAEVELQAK

[22] = tested on: Streptococcus sp. 'group A'; experiment: growth inhibition of control SK(-) GAS strain, dose response, counter-screen for streptokinase expression inhibitor project, luminescence, kanamycin, BacTiterGlo, confirmation (AID 1900); assay type: functional, organism-based
[23] = tested on: Streptococcus; experiment: Group A Streptococcus viability loss, dose response, counter-screen for streptokinase expression inhibitor project, luminescence, BacTiterGlo (AID 1915); assay type: functional, organism-based;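 note: potency for reduction of bacterial viability or growth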
[24] = Luminescence Cell-Based Dose Retest to Confirm Inhibitors of Cancer Stem Cells. [Related pubchem assays (depositor defined):AID2717, AID2721]; assay type: functional; conditions: Homo sapiens
[25] = HepG2 cell cytotoxicity, dose response, cytotoxicity control for non-replicating M. tuberculosis project (AID 489018); assay type: functional; conditions: Mycobacterium tuberculosis
[26] = cells; assay type: functional
[27] = THP-1 cell cytotoxicity, dose response, cytotoxicity control for non-replicating M. tuberculosis project (AID 489025); assay type: functional
[28] = Shn3 3'UTR reporter inhibitors, dose response, cell-based, Clone20 osteoblasts, firefly luciferase, cherry-picked (AID 624132); assay type: functional;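 note: firefly luciferase luminescence from reporter carrying the Shn3 3'UTR in osteoblasts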
[29] = Vero E6 cell cytotoxicity, dose response, cytotoxicity control for non-replicating M. tuberculosis project, secondary assay (AID 492998); assay type: functional, VeroE6; conditions: Vero C1008
[30] = tested on: A-375; experiment: MITF: Counter assay: A375 proliferation Measured in Cell-Based System Using Plate Reader - 2084-03_Inhibitor_Dose_DryPowder_Activity. [Related pubchem assays (depositor defined):AID488944]; assay type: functional; conditions: Homo sapiens
[31] = biological target: T5, Microphthalmia-associated transcription factor (Homo sapiens, UniProt O75030); experiment: TRPM1 promoter luciferase signal decrease, dose response, MITF inhibitor project, cell-based, SK-MEL-5, cherry-picked, set 3 (AID 493073); assay type: functional
T5 sequence (O75030 whole entry): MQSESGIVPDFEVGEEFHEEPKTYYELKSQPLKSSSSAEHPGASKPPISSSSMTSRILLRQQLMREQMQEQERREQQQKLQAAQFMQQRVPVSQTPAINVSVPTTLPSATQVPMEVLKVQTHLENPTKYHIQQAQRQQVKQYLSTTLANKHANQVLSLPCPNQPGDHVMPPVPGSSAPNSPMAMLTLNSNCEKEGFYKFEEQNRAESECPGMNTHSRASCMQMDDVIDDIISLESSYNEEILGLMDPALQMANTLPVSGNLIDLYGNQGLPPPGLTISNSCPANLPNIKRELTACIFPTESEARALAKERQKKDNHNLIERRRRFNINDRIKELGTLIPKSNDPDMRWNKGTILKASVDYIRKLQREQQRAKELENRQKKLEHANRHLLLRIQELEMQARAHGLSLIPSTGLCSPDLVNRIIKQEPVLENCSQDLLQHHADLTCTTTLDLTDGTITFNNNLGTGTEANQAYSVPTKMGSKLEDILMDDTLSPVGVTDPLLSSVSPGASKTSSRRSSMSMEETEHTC

[32] = HeLa cell cytotoxicity, dose response, cytotoxicity control for MgcRacGAP inhibitor project (AID 624300); assay type: functional
[33] = tested on: INS1; experiment: beta cell apoptosis inhibitors, cytokine rescue, dose response, luminescence, retest (AID 449756); assay type: functional, cell-based; conditions: Rattus norvegicus;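 note: cell death triggered by IL-1 beta plus TNF-alpha plus IFN-gamma mixture; protective hits raise ATP signal compared with cytokine alone wells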

Sequence of Protein Wnt-3a (P27467 whole entry): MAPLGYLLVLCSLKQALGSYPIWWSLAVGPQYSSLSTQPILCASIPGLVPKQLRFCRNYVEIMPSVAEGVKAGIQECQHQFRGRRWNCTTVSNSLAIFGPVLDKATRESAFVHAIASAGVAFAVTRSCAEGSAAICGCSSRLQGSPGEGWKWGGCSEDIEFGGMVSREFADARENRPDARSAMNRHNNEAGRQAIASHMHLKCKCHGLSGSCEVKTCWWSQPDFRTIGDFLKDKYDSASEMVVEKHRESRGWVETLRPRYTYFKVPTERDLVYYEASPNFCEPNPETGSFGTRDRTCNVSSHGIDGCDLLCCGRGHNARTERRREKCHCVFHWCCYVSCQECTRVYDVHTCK
Sequence of Photoreceptor-specific nuclear receptor (Q9Y5X4 whole entry, the tested form may be a part): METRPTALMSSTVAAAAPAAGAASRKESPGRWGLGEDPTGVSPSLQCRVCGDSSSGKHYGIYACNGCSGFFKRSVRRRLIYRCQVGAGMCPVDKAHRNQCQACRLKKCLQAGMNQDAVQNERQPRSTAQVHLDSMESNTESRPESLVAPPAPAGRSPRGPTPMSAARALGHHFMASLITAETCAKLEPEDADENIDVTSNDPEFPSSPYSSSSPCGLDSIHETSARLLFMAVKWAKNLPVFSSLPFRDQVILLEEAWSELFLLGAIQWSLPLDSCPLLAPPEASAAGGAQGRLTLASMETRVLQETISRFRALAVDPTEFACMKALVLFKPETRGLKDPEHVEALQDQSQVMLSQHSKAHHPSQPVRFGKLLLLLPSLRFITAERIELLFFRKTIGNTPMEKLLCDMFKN
Sequence of ATP-dependent molecular chaperone HSP82 (C4YTQ8 whole entry): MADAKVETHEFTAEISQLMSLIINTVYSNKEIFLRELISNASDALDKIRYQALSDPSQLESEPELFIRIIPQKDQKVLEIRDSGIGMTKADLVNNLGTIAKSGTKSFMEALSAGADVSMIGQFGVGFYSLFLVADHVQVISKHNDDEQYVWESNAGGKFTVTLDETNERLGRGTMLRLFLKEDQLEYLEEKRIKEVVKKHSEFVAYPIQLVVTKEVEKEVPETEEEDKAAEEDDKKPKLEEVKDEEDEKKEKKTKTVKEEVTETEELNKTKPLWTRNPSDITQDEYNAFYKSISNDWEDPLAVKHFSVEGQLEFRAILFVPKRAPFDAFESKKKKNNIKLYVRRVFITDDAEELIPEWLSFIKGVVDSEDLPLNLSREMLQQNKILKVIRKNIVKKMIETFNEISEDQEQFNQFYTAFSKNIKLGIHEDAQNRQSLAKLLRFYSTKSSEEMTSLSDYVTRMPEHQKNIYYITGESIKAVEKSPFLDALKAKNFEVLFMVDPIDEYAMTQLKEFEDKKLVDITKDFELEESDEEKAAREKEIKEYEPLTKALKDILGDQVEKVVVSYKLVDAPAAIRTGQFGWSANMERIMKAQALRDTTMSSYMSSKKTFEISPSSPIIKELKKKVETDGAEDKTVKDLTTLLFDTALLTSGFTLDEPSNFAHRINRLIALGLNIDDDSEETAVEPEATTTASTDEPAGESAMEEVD
Sequence of 72 kDa type IV collagenase (P08253 whole entry): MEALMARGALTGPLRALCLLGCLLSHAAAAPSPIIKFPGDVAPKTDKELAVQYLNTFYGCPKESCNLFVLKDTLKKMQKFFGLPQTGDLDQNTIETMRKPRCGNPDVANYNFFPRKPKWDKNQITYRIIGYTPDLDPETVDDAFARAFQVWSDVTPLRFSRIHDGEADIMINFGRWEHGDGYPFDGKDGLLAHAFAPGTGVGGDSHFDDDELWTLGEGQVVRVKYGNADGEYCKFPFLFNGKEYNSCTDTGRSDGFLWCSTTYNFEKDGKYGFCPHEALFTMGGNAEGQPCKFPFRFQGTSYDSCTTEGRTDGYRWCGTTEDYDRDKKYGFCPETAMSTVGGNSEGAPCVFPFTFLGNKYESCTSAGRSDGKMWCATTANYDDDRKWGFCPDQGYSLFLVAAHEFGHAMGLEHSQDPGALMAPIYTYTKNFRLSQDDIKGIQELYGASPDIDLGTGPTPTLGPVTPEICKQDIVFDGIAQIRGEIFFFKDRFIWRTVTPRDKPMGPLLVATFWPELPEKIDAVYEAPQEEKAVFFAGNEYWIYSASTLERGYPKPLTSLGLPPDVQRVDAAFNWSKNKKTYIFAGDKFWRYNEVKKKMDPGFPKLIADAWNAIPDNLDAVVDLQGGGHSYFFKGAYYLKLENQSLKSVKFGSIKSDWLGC
Sequence of 26S proteasome non-ATPase regulatory subunit 14 (O00487 whole entry, the tested form may be a part): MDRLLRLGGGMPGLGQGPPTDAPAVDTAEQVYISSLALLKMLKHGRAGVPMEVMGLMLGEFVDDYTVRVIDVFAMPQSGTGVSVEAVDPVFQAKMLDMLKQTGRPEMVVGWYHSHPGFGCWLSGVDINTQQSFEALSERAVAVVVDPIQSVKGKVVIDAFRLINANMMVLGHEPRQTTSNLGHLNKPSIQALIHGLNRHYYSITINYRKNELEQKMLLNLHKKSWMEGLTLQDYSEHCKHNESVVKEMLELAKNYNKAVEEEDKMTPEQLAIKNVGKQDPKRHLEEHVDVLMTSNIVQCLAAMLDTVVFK
Sequence of Voltage-dependent T-type calcium channel subunit alpha-1H (O95180 whole entry): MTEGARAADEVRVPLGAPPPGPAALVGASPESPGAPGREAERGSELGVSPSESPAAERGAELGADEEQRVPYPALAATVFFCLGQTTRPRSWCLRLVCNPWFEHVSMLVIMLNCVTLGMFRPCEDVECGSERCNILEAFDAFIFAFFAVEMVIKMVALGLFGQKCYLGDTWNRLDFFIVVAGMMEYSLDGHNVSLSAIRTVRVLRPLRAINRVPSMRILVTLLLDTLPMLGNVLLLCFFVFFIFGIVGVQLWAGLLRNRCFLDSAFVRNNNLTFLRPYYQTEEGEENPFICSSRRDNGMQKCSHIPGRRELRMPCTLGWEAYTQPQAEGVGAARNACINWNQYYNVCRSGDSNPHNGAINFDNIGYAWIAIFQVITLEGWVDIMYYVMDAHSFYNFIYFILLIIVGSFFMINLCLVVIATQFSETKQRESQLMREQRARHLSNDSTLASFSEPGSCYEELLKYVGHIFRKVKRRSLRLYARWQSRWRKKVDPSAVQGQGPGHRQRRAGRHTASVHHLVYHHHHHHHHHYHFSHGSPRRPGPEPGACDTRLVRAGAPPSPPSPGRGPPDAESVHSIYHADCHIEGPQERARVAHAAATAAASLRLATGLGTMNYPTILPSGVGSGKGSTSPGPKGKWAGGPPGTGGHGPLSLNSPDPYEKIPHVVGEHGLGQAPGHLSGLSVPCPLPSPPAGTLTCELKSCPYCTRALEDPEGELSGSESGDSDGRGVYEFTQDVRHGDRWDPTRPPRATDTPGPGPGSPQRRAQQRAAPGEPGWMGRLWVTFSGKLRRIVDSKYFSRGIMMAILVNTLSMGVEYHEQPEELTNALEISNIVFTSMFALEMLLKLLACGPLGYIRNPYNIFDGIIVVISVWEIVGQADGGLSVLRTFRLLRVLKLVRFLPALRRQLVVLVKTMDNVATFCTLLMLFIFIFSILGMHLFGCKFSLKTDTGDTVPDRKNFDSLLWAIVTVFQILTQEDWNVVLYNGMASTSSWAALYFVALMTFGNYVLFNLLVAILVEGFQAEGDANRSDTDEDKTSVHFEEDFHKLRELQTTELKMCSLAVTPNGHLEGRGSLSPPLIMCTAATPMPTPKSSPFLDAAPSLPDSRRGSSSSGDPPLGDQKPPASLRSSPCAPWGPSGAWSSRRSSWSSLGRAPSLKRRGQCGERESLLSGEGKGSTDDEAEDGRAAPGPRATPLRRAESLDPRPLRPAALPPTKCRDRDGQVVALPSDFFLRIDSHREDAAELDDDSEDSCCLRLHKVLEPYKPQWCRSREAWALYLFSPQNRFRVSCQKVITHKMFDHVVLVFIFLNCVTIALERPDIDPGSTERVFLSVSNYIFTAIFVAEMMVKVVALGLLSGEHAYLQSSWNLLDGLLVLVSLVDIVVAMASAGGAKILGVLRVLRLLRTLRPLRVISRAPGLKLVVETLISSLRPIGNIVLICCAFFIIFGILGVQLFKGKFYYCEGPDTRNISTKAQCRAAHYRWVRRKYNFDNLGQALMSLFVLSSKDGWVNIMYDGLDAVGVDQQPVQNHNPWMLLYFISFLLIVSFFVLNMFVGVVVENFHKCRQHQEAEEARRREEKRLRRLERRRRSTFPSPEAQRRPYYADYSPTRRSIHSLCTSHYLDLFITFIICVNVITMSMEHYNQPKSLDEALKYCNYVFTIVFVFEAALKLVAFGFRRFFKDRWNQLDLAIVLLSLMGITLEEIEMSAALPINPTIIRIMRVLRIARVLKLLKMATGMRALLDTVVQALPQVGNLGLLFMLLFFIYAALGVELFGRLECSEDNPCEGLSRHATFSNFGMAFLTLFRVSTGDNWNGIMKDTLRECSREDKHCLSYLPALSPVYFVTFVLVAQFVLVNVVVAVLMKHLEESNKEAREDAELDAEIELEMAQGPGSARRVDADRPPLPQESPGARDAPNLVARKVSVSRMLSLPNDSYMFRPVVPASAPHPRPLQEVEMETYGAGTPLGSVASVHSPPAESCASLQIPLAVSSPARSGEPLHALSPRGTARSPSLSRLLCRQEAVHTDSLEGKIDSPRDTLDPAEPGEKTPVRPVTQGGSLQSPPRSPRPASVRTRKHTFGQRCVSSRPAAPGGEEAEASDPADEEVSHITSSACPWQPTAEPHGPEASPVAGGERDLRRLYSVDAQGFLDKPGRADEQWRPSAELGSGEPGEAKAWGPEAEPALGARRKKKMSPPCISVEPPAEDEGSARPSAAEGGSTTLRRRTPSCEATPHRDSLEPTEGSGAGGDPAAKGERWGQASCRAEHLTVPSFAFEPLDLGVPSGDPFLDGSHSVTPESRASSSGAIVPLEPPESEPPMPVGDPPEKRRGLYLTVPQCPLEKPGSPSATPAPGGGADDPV
Sequence of Nonstructural protein 1 (Q194T2 whole entry): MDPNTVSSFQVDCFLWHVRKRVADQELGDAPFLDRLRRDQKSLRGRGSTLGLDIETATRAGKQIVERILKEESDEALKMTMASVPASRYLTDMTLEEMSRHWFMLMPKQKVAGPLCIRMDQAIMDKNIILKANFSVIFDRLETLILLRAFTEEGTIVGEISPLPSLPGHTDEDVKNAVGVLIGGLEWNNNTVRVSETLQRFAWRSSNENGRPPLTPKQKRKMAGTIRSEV

CCC(=O)NC(c1cccs1)c1cc([N+](=O)[O-])c2cccnc2c1O (centres undefined)
EC50 [1]: 24 µM (active)
EC50 [2]: 33.6 µM (active)
IC50 [3]: 40.3 µM (active)
IC50 [4]: 2.47 µM (active)
EC50 [5]: > 180 µM (inactive)
EC50 [6]: 0.185 µM (active)
IC50 [7]: 5.91 µM (active)
IC50 [8]: > 100 µM (inactive)
IC50 [9]: 6.66 µM (active)

CCC(C)(C)n1nnnc1C(c1ccc(C)cc1)N(Cc1ccco1)Cc1cccs1 (centres undefined)
EC50 [10]: > 59.6 µM (inactive)
EC50 [11]: > 59.6 µM (inactive)
EC50 [12]: 2.86 µM (active)
EC50 [13]: > 60 µM (not active)
EC50 [14]: 6.74 µM (active)

CCCCCCCN1C2=NCCCN2c2ccccc21
IC50 [15]: 12.6 µM (active)
AC50 [16]: 11.8 µM (active)
AC50 [17]: 46 µM (active)

COc1ccc(CNc2cc(C)nc3ncnn23)c(OC)c1
IC50 [15]: 4.21 µM (active)

CCCn1c(=N)c(S(=O)(=O)c2ccc(F)cc2)cc2c(=O)n3cccc(C)c3nc21
AC50 [18]: 42.8 µM (active)

COc1ccc(-c2nnc(Nc3nc4c(OC)cccc4s3)o2)c(OC)c1
EC50 [2]: > 150 µM (inconclusive)
EC50 [19]: > 300 µM (not active)
EC50 [10]: > 59.6 µM (inactive)
EC50 [20]: 61.3 µM (active)
EC50 [11]: > 59.6 µM (inactive)
EC50 [6]: > 38 µM (not active)
Ki [21]: > 66.7 µM (inactive)

COc1ccc(N2C(=O)C3C4C=CC(C4)C3C2=O)nn1 (centres undefined)
AC50 [18]: 26.5 µM (active)

CC(=O)c1c(O)cc(O)c(C(C)=O)c1O
IC50 [4]: 3.24 µM (active)
EC50 [22]: 3.9 µM (active)
EC50 [23]: 3.98 µM (active)

Cc1ccn2c(Nc3ccccc3)c(-c3ccccn3)nc2c1
AC50 [24]: 4.95 µM (active)
CC50 [25]: > 20 µM (active)
IC50 [26]: 3.88 µM (active)
CC50 [27]: 6.44 µM (active)
AC50 [28]: 2.31 µM (active)
CC50 [29]: 4.64 µM (active)
AC50 [16]: 3.25 µM (active)
AC50 [30]: 38.1 µM (active)
AC50 [31]: 9.31 µM (active)
EC50 [12]: 1.16 µM (active)
CC50 [32]: 50 µM (active)
AC50 [33]: 5.31 µM (active)
AC50 [17]: 7.07 µM (active)
EC50 [13]: 2.91 µM (active)
